Experiment: SPECT and PET imaging biodistribution in mice
Format: in vivo, BALB/c mice
Description: For in vivo imaging and stability studies, ^117Sb was produced in 0.5 M NH4OAc at the University of Wisconsin-Madison and experiments were conducted the same day. 2 mL of ^117Sb in 0.5 M NH4OAc pH 4 solution was combined with 220 μL of 10 mM TRENCAM in 20% DMSO solution and heated to 80° C. for 1 h. Quantitative radiolabeling was confirmed via TLC. A 1:5 dilution of the radiolabeling solution with DI H2O was performed before passing it through a C8 Sep-Pak® cartridge (Waters, Milford, MA, USA), preconditioned with 5 mL EtOH and 5 mL H2O) to trap the [^117Sb]Sb-TRENCAM complex. The cartridge was rinsed with 1 mL H2O to remove NH4OAc buffer and unchelated ^117/119Sb, and then the [^117Sb]Sb-TRENCAM complex was eluted with EtOH and collected dropwise. […]
Two groups of healthy 3-month-old male BALB/c mice (n=3) ([…]) were injected with 150 μL ^117Sb solutions. […] In both cases, scanner calibration occurred by imaging vials of ^117Sb activity and correlating image signal strength to activity measured via High Purity Germanium (HPGe) gamma spectroscopy. […] Using co-registered CT images, manual volume-of-interest delineation of tissues allowed activity biodistribution measurement, as expressed as percent injected activity per gram of tissue (% IA/g), using either Inveon Research Workstation (Siemens) for PET VOI analysis or Imalytics 3.0 (MILabs) for SPECT VOI analysis. […]

Structure (SMILES): [OH][Sb-]([OH])([OH])([OH])([OH])[OH] [[^117Sb]Sb(OH)6^−]
- uptake in bone (PET images) (PET 150 min post injection): uptake
- clearance route and organ uptake by PET and SPECT imaging (tail vein injection, imaged 20-240 min post injection): renal clearance with liver accumulation

Source: patent US20250082794A1, “ANTIMONY CHELATES FOR TARGETED AUGER THERAPY AND IMAGING DIAGNOSTICS” (Wisconsin Alumni Research Foundation, priority 2023, published 2025)
